Reference: a compilation of properties of binary mixtures (doi:10.1021/je5008857)

Assay: xn = mol fraction of the nth substance listed
Settings: 101 kPa

CC(=O)[O-].CC[n+]1ccn(C)c1 + N#C[S-].[Na+]
x2 = 0
Settings | electrical conductivity [S/m] | viscosity [mPa·s]
298.15 K | 0.287 | 126.3
308.15 K | 0.473 | 71.3
318.15 K | 0.76 | 44.2
323.15 K | 0.918 | 35.7

CC(=O)[O-].CC[n+]1ccn(C)c1 + [Cl-].[NH4+]
x2 = 0
Settings | electrical conductivity [S/m] | viscosity [mPa·s]
298.15 K | 0.287 | 126.3
303.15 K | 0.374 | 93.6
313.15 K | 0.587 | 55.5
323.15 K | 0.918 | 35.7

CC(=O)[O-].[NH4+] + CC(=O)[O-].CC[n+]1ccn(C)c1
Settings | electrical conductivity [S/m] | viscosity [mPa·s]
298.15 K, x1 = 0.0503 | 0.255 | 153
298.15 K, x1 = 0.0999 | 0.226 | 186
298.15 K, x1 = 0.1703 | 0.181 | 261
298.15 K, x1 = 0.2498 | 0.146 | 389
298.15 K, x1 = 0.328 | 0.114 | 572
303.15 K, x1 = 0.0503 | 0.337 | 111.7
303.15 K, x1 = 0.0999 | 0.299 | 134.7
303.15 K, x1 = 0.1703 | 0.242 | 186
303.15 K, x1 = 0.2498 | 0.199 | 271
303.15 K, x1 = 0.328 | 0.158 | 390
303.15 K, x1 = 0.4491 | 0.106 | 673
308.15 K, x1 = 0.0503 | 0.431 | 83.9
308.15 K, x1 = 0.0999 | 0.389 | 100.1
308.15 K, x1 = 0.1703 | 0.319 | 135.5
308.15 K, x1 = 0.2498 | 0.266 | 194
313.15 K, x1 = 0.0503 | 0.542 | 64.6
313.15 K, x1 = 0.2498 | 0.349 | 142.3
313.15 K, x1 = 0.4491 | 0.201 | 321
318.15 K, x1 = 0.0503 | 0.671 | 50.7
318.15 K, x1 = 0.0999 | 0.617 | 59.1
318.15 K, x1 = 0.1703 | 0.519 | 77.2
318.15 K, x1 = 0.4491 | 0.267 | 230
323.15 K, x1 = 0.0503 | 0.862 | 40.5
323.15 K, x1 = 0.0999 | 0.796 | 46.6
323.15 K, x1 = 0.1703 | 0.641 | 59.9
323.15 K, x1 = 0.2498 | 0.562 | 81.3
323.15 K, x1 = 0.328 | 0.471 | 108.4
323.15 K, x1 = 0.4491 | 0.347 | 169

CCS(=O)(=O)[O-].[NH4+] + CC(=O)[O-].CC[n+]1ccn(C)c1
Settings | electrical conductivity, x1 = 0.05 [S/m] | electrical conductivity, x1 = 0.0999 [S/m] | electrical conductivity, x1 = 0.1701 [S/m] | viscosity, x1 = 0.05 [mPa·s] | viscosity, x1 = 0.0999 [mPa·s] | viscosity, x1 = 0.1701 [mPa·s]
298.15 K | 0.247 | 0.2 | 0.164 | 157 | 210 | 299
303.15 K | 0.323 | 0.266 | 0.222 | 115 | 151 | 210
308.15 K | 0.415 | 0.346 | 0.293 | 86.3 | 111.2 | 151
313.15 K | 0.522 | 0.442 | – | 66.2 | 83.9 | –
318.15 K | – | 0.553 | 0.481 | – | 64.6 | 84.7
323.15 K | 0.775 | – | – | 41.3 | – | –

CC(=O)[O-].[Na+] + CC(=O)[O-].CC[n+]1ccn(C)c1
Settings | electrical conductivity, x1 = 0.0501 [S/m] | electrical conductivity, x1 = 0.1001 [S/m] | electrical conductivity, x1 = 0.1605 [S/m] | viscosity, x1 = 0.0501 [mPa·s] | viscosity, x1 = 0.1001 [mPa·s] | viscosity, x1 = 0.1605 [mPa·s]
298.15 K | 0.232 | 0.189 | 0.152 | 160 | 205 | 300
303.15 K | 0.305 | – | 0.207 | 117.1 | – | 210
308.15 K | 0.392 | 0.327 | 0.272 | 88 | 109.3 | 153
313.15 K | 0.491 | 0.416 | 0.352 | 67.7 | 83.1 | 113.7
318.15 K | 0.606 | 0.518 | 0.442 | 53.2 | 64.7 | 86.9
323.15 K | 0.734 | 0.632 | 0.537 | 42.7 | 51.3 | 67.9

CC(=O)[O-].CC[n+]1ccn(C)c1 + CC(=O)[O-].[Na+]
x2 = 0
Settings | electrical conductivity [S/m] | viscosity [mPa·s]
298.15 K | 0.287 | 126.3
303.15 K | 0.374 | 93.6
308.15 K | 0.473 | 71.3
313.15 K | 0.587 | 55.5
318.15 K | 0.76 | 44.2
323.15 K | 0.918 | 35.7

N#C[S-].[Na+] + CC(=O)[O-].CC[n+]1ccn(C)c1
x1 = 0.0502
Settings | electrical conductivity [S/m] | viscosity [mPa·s]
298.15 K | 0.242 | 150
303.15 K | 0.316 | 110.4
308.15 K | 0.404 | 83.3
313.15 K | 0.504 | 64.4
318.15 K | 0.618 | 50.9
323.15 K | 0.734 | 40.9

CC(=O)[O-].CC[n+]1ccn(C)c1 + CC(=O)[O-].[NH4+]
x2 = 0
Settings | electrical conductivity [S/m] | viscosity [mPa·s]
298.15 K | 0.287 | 126.3
303.15 K | 0.374 | 93.6
308.15 K | 0.473 | 71.3
313.15 K | 0.587 | 55.5
318.15 K | 0.76 | 44.2

CC(=O)[O-].CC[n+]1ccn(C)c1 + CCS(=O)(=O)[O-].[NH4+]
x2 = 0
Settings | electrical conductivity [S/m] | viscosity [mPa·s]
298.15 K | 0.287 | 126.3
308.15 K | 0.473 | 71.3
313.15 K | 0.587 | 55.5
323.15 K | 0.918 | 35.7

[Cl-].[NH4+] + CC(=O)[O-].CC[n+]1ccn(C)c1
Settings | electrical conductivity, x1 = 0.0505 [S/m] | electrical conductivity, x1 = 0.0999 [S/m] | electrical conductivity, x1 = 0.1702 [S/m] | electrical conductivity, x1 = 0.25 [S/m] | electrical conductivity, x1 = 0.3297 [S/m] | viscosity, x1 = 0.0505 [mPa·s] | viscosity, x1 = 0.0999 [mPa·s] | viscosity, x1 = 0.1702 [mPa·s] | viscosity, x1 = 0.25 [mPa·s] | viscosity, x1 = 0.3297 [mPa·s]
298.15 K | – | 0.19 | 0.139 | 0.0911 | 0.0567 | – | 236 | 405 | 775 | 1608
303.15 K | – | 0.255 | 0.192 | 0.13 | 0.0843 | – | 168 | 278 | 511 | 1040.8
308.15 K | 0.398 | 0.333 | 0.259 | 0.179 | 0.121 | 92.9 | 122.6 | 196 | 348 | 693
313.15 K | 0.501 | – | – | 0.242 | 0.169 | 71 | – | – | 245 | 478
318.15 K | – | 0.537 | 0.439 | 0.32 | 0.23 | – | 70.2 | 106.2 | 177 | 339
323.15 K | – | 0.661 | 0.552 | 0.414 | 0.305 | – | 54.7 | 80.6 | 130.5 | 246
